Patent US5852049A, “Aromatic ethers derived from indoles which are useful as medicaments” (Pierre Fabre Medicament, priority 1994, dated 1998)
Structures can show the parent of a compound that is named as a salt. Where two headings read alike, the source gives them in different places.

Tests used:
[1] = system: rabbit saphenous vein; experiment: contraction of the rabbit saphenous vein rings mediated by the 5HT1-like receptors; format: cell-based; settings: Oryctolagus cuniculus; for Emax: read-out: Relative Emax; for EC50: read-out: pD2 (converted)
Excerpt: The derivatives of the present invention are, in addition, capable, like serotonin, of inducing the contraction of the rabbit saphenous vein rings mediated by the "5HT1-like " receptors.
The technique used was adapted from Van Heuven-Nolsen D. et al., Eur. J. Pharmacol. 191, 375-382 (1990) and from Martin G. R. and Mc Lennan S. J., Naunyn-Schmiedeberg's Arch. Pharmacol. 342, 111-119 (1990) and therefore makes it possible to determine a pD2 value and an Emax relative to serotonin for each product tested.

[2] = target: T1, human 5HT1Dβ (Homo sapiens, UniProt P28222); experiment: binding to human 5HT1Dβ receptor
T1 construct: expressed in transfected cells; host or cells: Cos-7 and CHO-K1
Procedure: (§1) The study of the binding of the derivatives of the present invention with the human 5HT1Dα, 5HT1Dβ and 5HT1A receptors was carried out according to the method described by P. Pauwels and C. Palmier (Neuropharmacology, 33, 67, 1994).
(§2) The incubation media for these binding measurements comprise 0.4 ml of cell membrane preparation, 0.05 ml of a tritiated ligand [[3H]-5CT (final concentration: 2 nM) for the 5HT1Dα and 5HT1Dβ receptors and [3H]-8OH-DPAT (final concentration: 1 nM) for the 5HT1A receptor] and 0.05 ml of the molecule to be tested (final concentrations: 0.1 to 1000 nM) or 10 μM (final concentration) of serotonin (5HT1Dα and 5HT1Dβ) or 1 μM (final concentration)of spiroxatrine (5HT1A).

[3] = target: T2, human 5HT1Dα (Homo sapiens, UniProt P28221); experiment: binding to human 5HT1Dα receptor
T2 construct: expressed in transfected cells; host or cells: Cos-7 and CHO-K1
Procedure: as §1, §2

[4] = target: T3, human 5HT1A (Homo sapiens, UniProt P08908); experiment: binding to human 5HT1A receptor (HeLa HA7 cell line)
T3 construct: expressed in transfected cells; host or cells: HeLa HA7
T3 sequence (P08908 1-422): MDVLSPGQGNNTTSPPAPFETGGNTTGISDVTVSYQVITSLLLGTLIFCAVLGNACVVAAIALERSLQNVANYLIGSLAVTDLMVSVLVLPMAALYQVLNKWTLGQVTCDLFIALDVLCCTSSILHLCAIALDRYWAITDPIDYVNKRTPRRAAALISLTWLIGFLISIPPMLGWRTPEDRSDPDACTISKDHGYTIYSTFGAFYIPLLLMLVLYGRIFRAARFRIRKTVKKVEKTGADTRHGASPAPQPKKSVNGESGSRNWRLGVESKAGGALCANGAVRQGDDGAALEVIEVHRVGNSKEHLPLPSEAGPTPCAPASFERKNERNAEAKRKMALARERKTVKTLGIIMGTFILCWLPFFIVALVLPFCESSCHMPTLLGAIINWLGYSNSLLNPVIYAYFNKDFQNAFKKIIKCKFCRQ
Excerpt: The HeLa HA7 cell line expressing the human 5HT1A receptor was obtained from Tulco (Duke Univ., Durham, N.C., USA) and cultured according to the method of Fargin et al., J. Biol. Chem. 264, 14848 (1989).
Palmier (Neuropharmacology, 33, 67, 1994).

[5] = contraction of the rabbit saphenous vein
[6] = human receptor, [3H]-5CT 2 nM, read-out: Ki 5HT1Dβ
[7] = human receptor, HeLa HA7, [3H]-8OH-DPAT 1 nM, read-out: Ki 5HT1A
[8] = Emax of the compound relative to Emax of serotonin

T1 sequence (P28222 whole entry): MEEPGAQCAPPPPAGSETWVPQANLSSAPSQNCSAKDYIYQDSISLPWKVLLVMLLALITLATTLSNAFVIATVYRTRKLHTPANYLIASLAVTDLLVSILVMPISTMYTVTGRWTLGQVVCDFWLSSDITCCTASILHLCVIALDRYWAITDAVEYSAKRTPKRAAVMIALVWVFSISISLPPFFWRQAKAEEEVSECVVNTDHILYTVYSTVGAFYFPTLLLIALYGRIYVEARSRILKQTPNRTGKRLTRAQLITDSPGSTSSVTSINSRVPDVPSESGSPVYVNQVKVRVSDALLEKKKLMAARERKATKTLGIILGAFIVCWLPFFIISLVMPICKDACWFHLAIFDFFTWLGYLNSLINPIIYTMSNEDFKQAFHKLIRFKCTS
T2 sequence (P28221 whole entry): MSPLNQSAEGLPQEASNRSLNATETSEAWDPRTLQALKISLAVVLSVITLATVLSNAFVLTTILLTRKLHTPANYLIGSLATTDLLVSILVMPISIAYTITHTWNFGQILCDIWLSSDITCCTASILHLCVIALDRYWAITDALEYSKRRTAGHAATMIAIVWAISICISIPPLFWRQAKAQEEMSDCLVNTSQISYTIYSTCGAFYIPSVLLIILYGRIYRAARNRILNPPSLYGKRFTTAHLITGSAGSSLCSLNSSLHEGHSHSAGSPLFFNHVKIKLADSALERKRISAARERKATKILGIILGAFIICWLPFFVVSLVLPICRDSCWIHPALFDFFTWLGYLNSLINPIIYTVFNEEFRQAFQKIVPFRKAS

| SMILES | Emax [1] [%] | EC50 [1, 5] [nM] | Ki [2] [nM] | Ki [3] [nM] | Ki [4] [nM] | other results |
| --- | --- | --- | --- | --- | --- | --- |
| CCOC(=O)CCCOc1ccc2[nH]cc(CCN)c2c1 [Example 12, Ethyl 4-[3-(2-aminoethyl)-1H-indol-5-yloxy)-butyrate hydrochloride] | 80 | 692 | – | – | – | – |
| CCOC(=O)CCCCOc1ccc2[nH]cc(CCN)c2c1 [Example 13, Ethyl 5-[3-(2-aminoethyl)-1H-indol-5-yloxy]pentanoate hydrochloride] | 120 | 309 | – | – | – | – |
| CC(C)OC(=O)CCCCCOc1ccc2[nH]cc(CCN)c2c1 [Example 16, Isopropyl 6-[3-(2-aminoethyl)-1H-indol-5-yloxy]hexanoate hydrochloride] | 136 | 240 | 0.7 | 1.5 | 9 | – |
| N#CCCCCCOc1ccc2[nH]cc(CCN)c2c1 [Example 17, 6-[3-(2-Aminoethyl)-1H-indol-5-yloxy]hexanitrile hydrochloride] | – | – | – | 2.2 | – | Ki [2, 6]: 2.6 nM; Ki [4, 7]: 24.3 nM |
| NCCCCCCOc1ccc2[nH]cc(CCN)c2c1 [Example 18, 6-[3-(2-Aminoethyl)-1H-indol-5-yloxy]hexylamine hydrochloride] | – | – | 2 | 2.4 | 78.6 | – |
| CS(=O)(=O)NCCCCCCOc1ccc2[nH]cc(CCN)c2c1 [Example 19, N-{6-[3-(2-Aminoethyl)-1H-indol-5-yloxy]hexyl}methanesulfonamide hydrochloride] | 100 | – | 0.7 | 1.1 | 11.5 | EC50 [1]: 15.8 nM |
| CCNC(=O)CCCCCOc1ccc2[nH]cc(CCN)c2c1 [Example 20, 6-[3-(2-Aminoethyl)-1H-indol-5-yloxy]-N-ethylhexanamide hydrochloride] | – | – | – | – | – | Ki ([2]; read-out: Ki 5HT1Dβ, human receptor, [3H]-5CT 2 nM): 1.1 nM; Ki ([3]; read-out: Ki 5HT1Dα, human receptor, [3H]-5CT 2 nM): 2 nM; Ki ([4]; read-out: Ki 5HT1A, human receptor, HeLa HA7, [3H]-8OH-DPAT 1 nM): 46.5 nM |
| CC(=O)OCCCCOc1ccc2[nH]cc(CCN)c2c1 [Example 23, 4-[3-(2-Aminoethyl)-1H-indol-5-yloxy]butylacetate hydrochloride] | – | – | 0.4 | 0.9 | 40 | – |
| CNS(=O)(=O)CCc1ccc2[nH]cc(C3CCN(C)CC3)c2c1 [Naratriptan, reference compound] | – | 2880 | – | – | – | Emax [1, 8]: 100%; Ki [2, 6]: 2 nM; Ki ([3]; human receptor, [3H]-5CT 2 nM, read-out: Ki 5HT1Dα): 1.6 nM; Ki [4, 7]: 46 nM |
| CNS(=O)(=O)Cc1ccc2[nH]cc(CCN(C)C)c2c1 [Sumatriptan, reference compound] | – | 1780 | – | – | – | Emax [1, 8]: 126% |
